Measured values: patent publication US12606528B2, “Methods and materials for inhibiting NF-kB activity” (University of Pittsburgh - Of the Commonwealth System of …, priority 2019, dated 2026)
Read-outs that look alike come from different tables or passages of the source.

Assays:
[1] = system: NF-κB; test: NF-κB assay: THP1-NF-κB-LUC cells, LPS-stimulated secreted luciferase; assay type: cell-based; conditions: THP1-NF-κB-LUC cells, read-out: IC50 (NF-κB assay)
Procedure, shortened: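 THP1-NF-κB-LUC cells (25k/well) were pretreated with compounds for 2 h, then stimulated with LPS (10 ng/mL) for 18 h. Secreted luciferase was measured and normalized to vehicle, and IC50 was fitted from the concentration series.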

[2] = system: TNF release; test: TNF assay: TNF release from LPS-stimulated human PBMCs (TNF ELISA); assay type: cell-based; conditions: PBMC, read-out: IC50 (TNF assay)
Procedure: 25k THP1-NF-κB-LUC cells were dispensed into 384 well plate (per well). Cells were treated with compounds with various concentrations for 2 hours before addition of LPS (10 ng/mL) for 18 hours. Secreted luciferase activity were measured using quant-luc reagents (1 bag of luc reagent dilute to 40 mL, use 10 μL per well). Data were normalized to vehicle control and graphed. Compound IC50 towards inhibiting NF-κB were determined through Prism. Similarly, 10k human PBMCs cells were cultured in 384 well plate (per well). Cells were treated with compounds with various concentrations for 2 hours before addition of LPS (10 ng/ml) for 18 hours, and supernatants were collected and assayed for TNF ELISA. Compound IC50 towards inhibiting TNF release were determined through Prism. • Activity: “+”>10 μM, “++”>1 μM and <10 μM, “+++”>0.1 μM and <1 μM, “++++”<0.1 μM.

[3] = compounds 2 hours before LPS (10 ng/mL) for 18 hours, secreted luciferase
[4] = human PBMCs, compounds 2 hours before LPS (10 ng/ml) for 18 hours, supernatant TNF ELISA
[5] = LPS-stimulated human PBMCs, TNF ELISA

| Structure (SMILES) | IC50 [1, 3] [nM] | IC50 [2, 4] [µM] | IC50 ([1]; LPS-stimulated) [nM] | IC50 [2, 5] [µM] |
| --- | --- | --- | --- | --- |
| O=c1[nH]ccc2cc([S+]([O-])c3ccc(Cl)cc3)ccc12 (centres unmarked) [BC19515] | > 10000 | > 10 |  |  |
| CC(=O)N1C[C@@H](S(=O)(=O)c2ccc(F)cc2)[C@H](S(=O)(=O)C(C)C)C1 (racemic) [BC19670] |  |  | 1000 to 10000 | 1 to 10 |
| O=C1CCOc2c(cc(Br)cc2S(=O)(=O)Nc2ccc(OC(F)(F)F)cc2)N1 [BC19648] |  |  | < 100 | > 10 |
| CCC1Oc2cc(S(=O)(=O)Nc3ccc(C)cc3)c(Cl)cc2NC1=O (centres unmarked) [BC19753] | < 100 | > 10 |  |  |
| Cc1ccc(NS(=O)(=O)c2cc(Br)cc3c2OC(C)C(=O)N3)cc1Cl (centres unmarked) [BC19225] | 100 to 1000 | > 10 |  |  |
| CC(C)C[S+]([O-])c1sc(-c2ccccc2F)nc1S(=O)(=O)c1ccc(Cl)cc1 (centres unmarked) [BC19630] |  |  | > 10000 | 1 to 10 |
| CC1Oc2cc(S(=O)(=O)NCCc3ccc(OC(F)(F)F)cc3)c(Br)cc2NC1=O (centres unmarked) [BC19359] | > 10000 | > 10 |  |  |
| CC(C)S(=O)(=O)c1snc(-c2ccc(F)cc2)c1S(=O)(=O)c1ccc(Cl)cc1 [BC19728] |  |  | > 10000 | 1 to 10 |
| COc1ccc(C)c2c(=O)c(S(=O)(=O)c3ccc(F)c(F)c3)c[nH]c12 [BC19200] | 1000 to 10000 | > 10 |  |  |
| CC(C)[S+]([O-])c1sc(-c2ccc(Cl)cc2)nc1S(=O)(=O)c1ccc(Cl)cc1 (centres unmarked) [BC19480] |  |  | > 10000 | > 10 |
| O=C1NCCOc2c1cc(Br)cc2S(=O)(=O)Nc1ccc(Cl)cc1 [BC19603] |  |  | 100 to 1000 | > 10 |
| CN1CCN(C(=O)c2ccc3nc(C(F)(F)F)c(-c4ccccc4)nc3c2)CC1 [BC19104] |  |  | > 10000 | > 10 |
| COCCNC(=O)N1c2cc(S(=O)(=O)N3CCCC3)ccc2NC(=O)C1C (centres unmarked) [BC19299] |  |  | 1000 to 10000 | > 10 |
| COc1cccc(-c2nc(S(=O)(=O)c3ccc(Cl)cc3)c([S+]([O-])CC3CC3)[nH]2)c1 (centres unmarked) [BC19462] |  |  | 1000 to 10000 | > 10 |
| O=C(NCCO)Nc1ccc2nc(-c3ccc(F)cc3)c(-c3ccc(F)cc3)nc2c1 [BC19566] |  |  | < 100 | > 10 |
| Cn1nnnc1-c1ccc2nc(-c3ccc(F)cc3)c(C(F)(F)F)nc2c1 [BC19152] |  |  | > 10000 | > 10 |
| N#Cc1ccc2nc(-c3ccc(F)cc3)c(-c3ccc(F)cc3)nc2n1 [BC19512] |  |  | 100 to 1000 | > 10 |
| CS(=O)(=O)c1sc(C2CCCCC2)nc1S(=O)(=O)c1ccc(Cl)cc1 [BC19641] |  |  | > 10000 | > 10 |
| O=C1COc2c(cc(Br)cc2S(=O)(=O)NCc2ccc(F)cc2F)N1 [BC19386] | > 10000 | > 10 |  |  |
| Fc1ccc(-c2nc3cc(-c4nnco4)ccc3nc2C(F)(F)F)cc1 [BC19116] |  |  | > 10000 | > 10 |
| CCS(=O)(=O)c1oc(-c2ccc(C)cc2)nc1S(=O)(=O)c1ccc(F)cc1 [BC19125] |  |  | < 100 | < 0.1 |
| O=c1c(S(=O)(=O)c2ccc(F)c(F)c2)c(O)[nH]c2ncccc12 [BC19256] | 1000 to 10000 | > 10 |  |  |
| CCC1Oc2cc(S(=O)(=O)Nc3ccc(Cl)cc3)c(Br)cc2NC1=O (centres unmarked) [BC19286] | < 100 | > 10 |  |  |
| O=C(Nc1ccc2nc(-c3ccc(F)cc3)c(-c3ccc(F)cc3)nc2c1)NC1CC1 [BC19568] |  |  | 100 to 1000 | > 10 |
| CN1CCN(C(=O)c2ccc3nc(C(F)(F)F)c(-c4cccc(F)c4)nc3c2)CC1 [BC19142] |  |  | > 10000 | > 10 |
| Cc1ccc(NS(=O)(=O)c2cc(Br)cc3c2OCCNC3=O)cc1Cl [BC19607] |  |  | 100 to 1000 | > 10 |
| COc1ccc(NS(=O)(=O)c2cc(Br)cc3c2OCC(=O)N3)cc1 [BC19175] | < 100 | > 10 |  |  |
| CCS(=O)(=O)c1cc2c(c(S(=O)(=O)Nc3ccc(C)cc3)c1)OCC(=O)N2 [BC19546] | < 100 | > 10 |  |  |

| Structure (SMILES) | IC50 [1, 3] [nM] | IC50 [2, 4] [µM] | IC50 ([1]; LPS-stimulated) [nM] | IC50 [2, 5] [µM] |
| --- | --- | --- | --- | --- |
| COCCNS(=O)(=O)c1ccc2nc(-c3ccc(F)cc3)c(-c3ccc(F)cc3)nc2c1 [BC19507] |  |  | < 100 | > 10 |
| CCc1ccc(NS(=O)(=O)c2cc(Br)cc3c2OCCC(=O)N3)cc1 [BC19686] |  |  | < 100 | > 10 |
| Cc1ccc(-c2nc(S(=O)(=O)c3ccc(C)cc3)c(S(=O)(=O)C(C)C)o2)cc1 [BC19146] |  |  | < 100 | 0.1 to 1 |
| OCCCn1c(-c2ccc3nc(-c4ccc(F)cc4)c(-c4ccc(F)cc4)nc3c2)n[nH]c1=S [BC19664] |  |  | 100 to 1000 | 0.1 to 1 |
| COc1ncc(-c2ccc3nc(-c4ccc(F)cc4)c(-c4ccc(F)cc4)nc3c2)cc1F [BC19303] |  |  | > 10000 | > 10 |
| CCC1Oc2c(cc(Br)cc2S(=O)(=O)NCc2ccc(C(F)(F)F)cc2)NC1=O (centres unmarked) [BC19377] | < 100 | > 10 |  |  |
| CCc1cccc(NS(=O)(=O)c2cc(Cl)cc3c2OC(CC)C(=O)N3)c1 (centres unmarked) [BC19750] | < 100 | > 10 |  |  |
| C#CCNC(=O)c1ccc2nc(-c3ccc(F)cc3F)c(-c3ccccc3)nc2c1 [BC19406] |  |  | 100 to 1000 | > 10 |
| Cc1ccc(NS(=O)(=O)c2cc(Br)cc3c2OC(C)C(=O)N3C)cc1 (centres unmarked) [BC19906] | < 100 | 1 to 10 |  |  |
| Cc1ccc([S+]([O-])c2cnccc2O)c(C)c1 (centres unmarked) [BC19458] | > 10000 | > 10 |  |  |
| CC(C)C[S+]([O-])c1sc(C2CCCCC2)nc1S(=O)(=O)c1ccc(Cl)cc1 (centres unmarked) [BC19637] |  |  | > 10000 | > 10 |
| O=C1COc2c(cc(Br)cc2S(=O)(=O)NCc2ccc(OC(F)(F)F)cc2)N1 [BC19385] | > 10000 | > 10 |  |  |
| O=C1COc2cc(S(=O)(=O)Nc3ccc(Cl)cc3)c(Cl)cc2N1 [BC19133] | < 100 | > 10 |  |  |
| Cc1ccc(NS(=O)(=O)c2cc3c(cc2Br)NC(=O)CCO3)cc1 [BC19661] |  |  | > 10000 | > 10 |
| O=S(=O)(NCCN1CCOCC1)c1ccc2nc(-c3ccc(F)cc3)c(-c3ccc(F)cc3)nc2c1 [BC19504] |  |  | 100 to 1000 | > 10 |
| COCC[S+]([O-])c1sc(-c2ccc(Cl)cc2)nc1S(=O)(=O)c1ccc(F)cc1 (centres unmarked) [BC19540] |  |  | 1000 to 10000 | 1 to 10 |
| CNC(=O)N1CC(=O)Nc2ccc(S(=O)(=O)N3CCCC3)cc21 [BC19183] |  |  | > 10000 | > 10 |
| Cc1ccc(F)c2[nH]cc(S(=O)(=O)c3ccc(F)c(F)c3)c(=O)c12 [BC19253] | < 100 | > 10 |  |  |
| CCc1cccc(NS(=O)(=O)c2cc(Br)cc3c2OC(C)C(=O)N3C)c1 (centres unmarked) [BC19900] | 100 to 1000 | > 10 |  |  |
| COCCCNC(=O)Nc1ccc2nc(-c3ccc(F)cc3)c(-c3ccc(F)cc3)nc2c1 [BC19574] |  |  | 100 to 1000 | > 10 |
| CS(=O)(=O)c1cc2c(c(S(=O)(=O)Nc3ccc(F)cc3Cl)c1)OCC(=O)N2 [BC19428] | 100 to 1000 | > 10 |  |  |
| CS(=O)(=O)c1[nH]nc(N)c1S(=O)(=O)c1ccccc1 [BC19339] |  |  | > 10000 | > 10 |
| NS(=O)(=O)c1ccc2c(c1)N1CCCC1C(=O)N2 (centres unmarked) [BC19300] |  |  | 100 to 1000 | > 10 |
| O=S(=O)(c1ccc(Cl)cc1)c1nc(-c2ccc(F)cc2)sc1[S+]([O-])CC1CC1 (centres unmarked) [BC19416] |  |  | > 10000 | > 10 |
| CC1Oc2cc(S(=O)(=O)Nc3ccc(C(C)C)cc3)c(Br)cc2N(C)C1=O (centres unmarked) [BC19794] | 1000 to 10000 | > 10 |  |  |
| C[S+]([O-])c1sc(-c2cccc(F)c2)nc1S(=O)(=O)c1ccc(F)cc1 (centres unmarked) [BC19595] |  |  | 100 to 1000 | 0.1 to 1 |
| CCNS(=O)(=O)c1cc(Cl)cc2c1OC(C)C(=O)N2 (centres unmarked) [BC19294] | 1000 to 10000 | > 10 |  |  |
